Measured values from patent publication US12065396B2, “Lipids for use in lipid nanoparticle formulations” (ACUITAS THERAPEUTICS, INC., priority 2017, dated 2024).

Assays:
[1] = Determination of pKa of formulated lipids (TNS fluorescence assay in lipid nanoparticles); assay type: physicochemical
Text: As described elsewhere, the pKa of formulated lipids was correlated with the effectiveness of LNPs for delivery of nucleic acids (see Jayaraman et al, Angewandte Chemie, International Edition (2012), 51(34), 8529-8533; Semple et al, Nature Biotechnology 28, 172-176 (2010)). In some embodiments, the preferred range of pKa was ˜5 to ˜7. […] Lipid nanoparticles comprising compound of structure (I)/DSPC/cholesterol/PEG-lipid (50/10/38.5/1.5 or 47.5:10:40.8:1.7 mol %) in PBS at a concentration of 0.4 mM total lipid were prepared using the in-line process as described in Example 1. TNS was prepared as a 100 μM stock solution in distilled water. Vesicles were diluted to 24 μM lipid in 2 mL of buffered solutions containing 10 mM HEPES, 10 mM MES, 10 mM ammonium acetate, and 130 mM NaCl, where the pH ranged from 2.5 to 11. An aliquot of the TNS solution was added to give a final concentration of […] and following vortex mixing fluorescence intensity was measured at room temperature in a SLM Aminco Series 2 Luminescence Spectrophotometer using excitation and emission wavelengths of 321 nm and 445 nm. A sigmoidal best fit analysis was applied to the fluorescence data and the pKa was measured as the pH giving rise to half-maximal fluorescence intensity.

[2] = tested on: luciferase expression in the liver; experiment: Luciferase mRNA in vivo evaluation using lipid nanoparticle compositions; parameters: species or system mice; details: for Liver Luc (ng luc/g liver), *dosed at 1.0 mg/kg: 1.0 mg mRNA/kg (footnote *); for Liver Luc (ng luc/g liver), *dosed at 1.0 mg/kg / Liver Luc @ 0.5 mg/kg (ng luc/g liver): tail vein injection, liver 4 hours after administration; for Relative activity in the luciferase assay relative to MC3: liver luciferase expression 4 hours after tail vein injection, 47.5/10/40.8/1.7 cationic lipid/DSPC/cholesterol/PEG-DMA; for Liver Luc @ 0.5 mg/kg (ng luc/g liver): 0.5 mg mRNA/kg
Procedure: A lipid of structure (I), DSPC, cholesterol and PEG-lipid were solubilized in ethanol at a molar ratio of 50:10:38.5:1.5 or 47.5:10:40.8:1.7. Lipid nanoparticles (LNP) were prepared at a total lipid to mRNA weight ratio of approximately 10:1 to 30:1. Briefly, the mRNA was diluted to 0.2 mg/mL in 10 to 50 mM citrate buffer, pH 4. Syringe pumps were used to mix the ethanolic lipid solution with the mRNA aqueous solution at a ratio of about 1:5 to 1:3 (vol/vol) with total flow rates above 15 mL/min. The ethanol was then removed and the external buffer replaced with PBS by dialysis. Finally, the lipid nanoparticles were filtered through a 0.2 μm pore sterile filter.
Studies were performed in 6-8 week old female C57BL/6 mice (Charles River) 8-10 week old CD-1 (Harlan) mice (Charles River) according to guidelines established by an institutional animal were committee (ACC) and the Canadian Council on Animal Cwere (CCAC). Varying doses of mRNA-lipid nanoparticle were systemically administered by tail vein injection and animals euthanized at a specific time point (e.g., 4 hours) post-administration. Liver and spleen were collected in pre-weighed tubes, weights determined, immediately snap frozen in liquid nitrogen and stored at −80° C. until processing for analysis.
For liver, approximately 50 mg was dissected for analyses in a 2 mL FastPrep tubes (MP Biomedicals, Solon Ohio). ¼″ ceramic sphere (MP Biomedicals) was added to each tube and 500 μL of Glo Lysis Buffer—GLB (Promega, Madison Wis.) equilibrated to room temperature was added to liver tissue. Liver tissues were homogenized with the FastPrep24 instrument (MP Biomedicals) at 2×6.0 m/s for 15 seconds. Homogenate was incubated at room temperature for 5 minutes prior to a 1:4 dilution in GLB and assessed using SteadyGlo Luciferase assay system (Promega). Specifically, 50 μL of diluted twassue homogenate was reacted with 50 μL of SteadyGlo substrate, shaken for 10 seconds followed by 5 minute incubation and then quantitated using a CentroXS^3 LB 960 luminometer (Berthold Technologies, Germany). The amount of protein assayed was determined by using the BCA protein assay kit (Pierce, Rockford, Ill.). Relative luminescence units (RLU) were then normalized to total g protein assayed. To convert RLU to ng luciferase a standard curve was generated with QuantiLum Recombinant Luciferase (Promega).
The FLuc mRNA (L-6107 or L-7602) from Trilink Biotechnologies will express a luciferase protein, originally isolated from the firefly, Photinus pyralwas. FLuc was commonly used in mammalian cell culture to measure both gene expression and cell viability. It emits bioluminescence in the presence of the substrate, luciferin. This capped and polyadenylated mRNA was fully substituted with 5-methylcytidine and pseudouridine.
Compounds of structure (I) were formulated using the following molar ratio: 47.5% cationic lipid/10% dwastearoylphosphatidylcholine (DSPC)/40.8% Cholesterol/1.7% PEG lipid (“PEG-DMA” 2-[2-(ω-methoxy(polyethyleneglycol2000)ethoxy]-N,N-ditetradecylacetamide). Relative activity was determined by measuring luciferase expression in the liver 4 hours following administration via tail vein injection as described in Example 1. […]
The cationic lipids shown in Table 2 have previously been tested with nucleic acids. For comparative purposes, these lipids were also used to formulate lipid nanoparticles containing the FLuc mRNA (L-6107) using an in line mixing method, as described in Example 1 and in PCT/US10/22614, which is hereby incorporated by reference in its entirety. Lipid nanoparticles may be formulated using the following molar ratio: 50% Cationic lipid/10% distearoylphosphatidylcholine (DSPC)/38.5% Cholesterol/1.5% PEG lipid (“PEG-DMG”, i.e., 1-(monomethoxy-polyethyleneglycol)-2,3-dimyristoylglycerol, with an average PEG molecular weight of 2000). In alternate embodiments, cationic lipid, DSPC, cholesterol and PEG-lipid are formulated at a molar ratio of approximately 47.5:10:40.8:1.7. […]

[3] = TNS fluorescence, pH giving half-maximal fluorescence intensity, values in text

pKa [1, 3]	pKa ([1]; Table 3, TNS assay)	SMILES	Liver Luc (ng luc/g liver), *dosed at 1.0 mg/kg [2]	Relative activity in the luciferase assay relative to MC3 [2]	Liver Luc @ 0.5 mg/kg (ng luc/g liver) [2]
4.69	–	CCCCCCCCCN(CCCN(C)C(C)=O)C(CCCCCCCCC(=O)OCC(CCCC)CCCCCC)CCCCCCCCC(=O)OCC(CCCC)CCCCCC (stereo not drawn) [Compound 1]	–	–	–
4.74	–	CCCCCCCCCN(CCCCC(=O)N(C)C)C(CCCCCCCCC(=O)OCC(CC)CCCC)CCCCCCCCC(=O)OCC(CC)CCCC (stereo not drawn) [Compound 2]	–	–	–
6.53	6.38	CCCCC(CC)COC(=O)CCCCCCCCC(CCCCCCCCC(=O)OCC(CC)CCCC)NCCCCC(=O)OCc1ccccc1 (stereo not drawn) [Compound 3]	1370 ± 674* ng luc/g liver	3.68	–
6.49	6.37	CCCCCCC(CCCC)COC(=O)CCCCCCCCC(CCCCCCCCC(=O)OCC(CCCC)CCCCCC)N(CCCCN(C)C)C(=O)C(CC)CCCC (stereo not drawn) [Compound 4]	1213 ± 702* ng luc/g liver	–	–
6.69	6.69	CCCCCCCCC(=O)N(CCCCN(C)C)C(CCCCCCCCC(=O)OCC(CCCC)CCCCCC)CCCCCCCCC(=O)OCC(CCCC)CCCCCC (stereo not drawn) [Compound 5]	1422 ± 372* ng luc/g liver	6.4	–
–	6.1	CCCCCCCCCN(CCCCC(=O)NCCO)C(CCCCCCCCC(=O)OCC(CCCC)CCCCCC)CCCCCCCCC(=O)OCC(CCCC)CCCCCC (stereo not drawn) [Compound 6]	318 ± 222* ng luc/g liver	–	–
–	5.83	CCCCCCCCCN(CCCCC(=O)N(C)CCO)C(CCCCCCCCC(=O)OCC(CCCC)CCCCCC)CCCCCCCCC(=O)OCC(CCCC)CCCCCC (stereo not drawn) [Compound 7]	33 ± 18* ng luc/g liver	–	–
–	6.09	CCCCCCC(CCCC)COC(=O)CCCCCCCCC(CCCCCCCCC(=O)OCC(CCCC)CCCCCC)NCCCCC(=O)OCc1ccccc1 (stereo not drawn) [Compound 8]	550 ± 164* ng luc/g liver	–	–
–	6.29	CCCCCCC(CCCC)COC(=O)CCCCCCCCC(CCCCCCCCC(=O)OCC(CCCC)CCCCCC)N(C)CCCO (stereo not drawn) [Compound 9]	7628 ± 3298* ng luc/g liver	–	–
8.04	–	CCCCCCC(CCCC)COC(=O)CCCCCCCCC(CCCCCCCCC(=O)OCC(CCCC)CCCCCC)NCCCO (stereo not drawn) [Compound 11]	–	–	–
4.84	–	CCCCCCCCCN(CCCO)C(CCCCCCCCC(=O)OCC(CCCC)CCCCCC)CCCCCCCCC(=O)OCC(CCCC)CCCCCC (stereo not drawn) [Compound 12]	–	–	–
–	6.03	CCCCCCC(CCCC)COC(=O)CCCCCCCCC(CCCCCCCCC(=O)OCC(CCCC)CCCCCC)N(CC)CCCO (stereo not drawn) [Compound 13]	–	–	514 ± 297 ng luc/g liver
–	6.19	CCCCCCC(CCCC)COC(=O)CCCCCCCCC(CCCCCCCCC(=O)OCC(CCCC)CCCCCC)N(CC)CCCCO (stereo not drawn) [Compound 14]	–	–	238 ± 70 ng luc/g liver
–	6.12	CCCCCCCCC(CCCCCC)COC(=O)CCCCCC(CCCCCC(=O)OCC(CCCCCC)CCCCCCCC)N(CC)CCCCO (stereo not drawn) [Compound 15]	–	–	345 ± 141 ng luc/g liver
–	6.43	CCCCCCC(CCCC)COC(=O)CCCCCCCCC(CCCCCCCCC(=O)OCC(CCCC)CCCCCC)N(C)CCCCO (stereo not drawn) [Compound 16]	–	–	2004 ± 582 ng luc/g liver
–	6.39	CCCCCCCCC(CCCCCC)COC(=O)CCCCCC(CCCCCC(=O)OCC(CCCCCC)CCCCCCCC)N(C)CCCO (stereo not drawn) [Compound 17]	–	–	405 ± 227 ng luc/g liver
–	6.45	CCCCCCCCC(CCCCCC)COC(=O)CCCCCC(CCCCCC(=O)OCC(CCCCCC)CCCCCCCC)N(C)CCCCO (stereo not drawn) [Compound 18]	–	–	1506 ± 429 ng luc/g liver
–	6.31	CCCCCCC(CCCC)C(=O)OCCCCCCCCCC(CCCCCCCCCOC(=O)C(CCCC)CCCCCC)N(C)CCCO (stereo not drawn) [Compound 19]	–	–	216 ± 85 ng luc/g liver
–	6.25	CCCCCCCCC(CCCCCC)COC(=O)CCCCCC(CCCCCC(=O)OCC(CCCCCC)CCCCCCCC)N(C)CCO (stereo not drawn) [Compound 20]	–	–	92 ± 48 ng luc/g liver
